According to patent US8022055B2, “Betulinic acid derivatives” (Dabur Pharma Limited, priority 2005, dated 2011):

Key:
[1] = system: DU145; test: three day MTT cytotoxicity assay, DU145; type: cell-based, human; details: for IC50 for cell lines DU145: DU145, 72 hours
Method: (§1) A number of compounds listed in Table-3 were tested for cytotoxicity against prostate, lung, laryngeal, pancreas, breast, colon and ovarian cancer, leukemia and lymphoma, human tumor cell lines. Briefly, a three day MTT cytotoxicity assay was performed, which is based on the principle of uptake of MTT (3-(4,5-dimethylthiazol-2-yl)-2,5-diphenyl tetrazolium bromide), a tetrazolium salt, by the metabolically active cells where it is metabolized by active mitochondria into a blue colored formazan product that is read spectrophotometrically. MIT was dissolved in phosphate buffered saline with a pH of 7.4 to obtain an MIT concentration of 5 mg/ml; the resulting mixture was filtered through a 0.22-micron filter to sterilize and remove a small amount of insoluble residue. For each type of tumor cell, 10,000 to 15,000 cells were seeded in a 96-well culture plate and incubated with the individual betulinic acid derivatives in a CO2 incubator for a total of 72 hours. Control cells not treated with the betulinic acid derivatives were similarly incubated. The assay was terminated by adding 100 μg (20 μl) of MIT to each well then incubating for additional one hour, and finally adding 50 μl of 10% SDS-0.01N HCl to each well to lyse the cells and dissolve formazan. After incubating for one hour, the plate was read spectrophotometrically at 540 nm and the percentage of cytotoxicity calculated using the following formula: Cytotoxicity percentage=100×[1−(X/R1)], where X=(absorbance of treated sample at 540 nm)−(absorbance of blank at 540 nm) R1=absorbance of control sample at 540 nm. The IC50 Values of the cytotoxicity defined as the concentration at which 50% of the cells are killed in vitro was calculated for each cell line treated with each of the betulinic acid derivatives.

[2] = system: SW620; test: three day MTT cytotoxicity assay, SW620; type: cell-based, human; details: for IC50 for cell lines SW620: SW620, 72 hours
Method: (§2) Briefly, a three day MTT cytotoxicity assay was performed, which is based on the principle of uptake of MTT (3-(4,5-dimethylthiazol-2-yl)-2,5-diphenyl tetrazolium bromide), a tetrazolium salt, by the metabolically active cells where it is metabolized by active mitochondria into a blue colored formazan product that is read spectrophotometrically. MIT was dissolved in phosphate buffered saline with a pH of 7.4 to obtain an MIT concentration of 5 mg/ml; the resulting mixture was filtered through a 0.22-micron filter to sterilize and remove a small amount of insoluble residue. For each type of tumor cell, 10,000 to 15,000 cells were seeded in a 96-well culture plate and incubated with the individual betulinic acid derivatives in a CO2 incubator for a total of 72 hours. Control cells not treated with the betulinic acid derivatives were similarly incubated. The assay was terminated by adding 100 μg (20 μl) of MIT to each well then incubating for additional one hour, and finally adding 50 μl of 10% SDS-0.01N HCl to each well to lyse the cells and dissolve formazan. After incubating for one hour, the plate was read spectrophotometrically at 540 nm and the percentage of cytotoxicity calculated using the following formula: Cytotoxicity percentage=100×[1−(X/R1)], where X=(absorbance of treated sample at 540 nm)−(absorbance of blank at 540 nm) R1=absorbance of control sample at 540 nm. The IC50 Values of the cytotoxicity defined as the concentration at which 50% of the cells are killed in vitro was calculated for each cell line treated with each of the betulinic acid derivatives.

[3] = system: A549; test: three day MTT cytotoxicity assay, A549; type: cell-based, human; details: for Specific Index (SI) for cell lines A549: ratio of IC50 of NIH 3T3 cells to A549
Method: as §1

[4] = system: K562; test: three day MTT cytotoxicity assay, K562; type: cell-based, human; details: for Specific Index (SI) for cell lines K562: ratio of IC50 of NIH 3T3 cells to K562
Method: as §1

[5] = system: HBL100; test: three day MTT cytotoxicity assay, HBL100; type: cell-based, human; details: for Specific Index (SI) for cell lines HBL100: ratio of IC50 of NIH 3T3 cells to HBL100
Method: as §1

[6] = system: Miapaca; test: three day MTT cytotoxicity assay, Miapaca; type: cell-based, human; details: for Specific Index (SI) for cell lines Miapaca: ratio of IC50 of NIH 3T3 cells to Miapaca
Method: as §1

[7] = system: NIH 3T3 cells; test: NIH3T3 cytotoxicity test (72 h MTT assay); type: cell-based; details: NIH3T3, 72 hours
Method: The cytotoxic effect of chemicals upon NIH 3T3 cells in culture is measured by cell metabolism determination using the previously described MIT assay. Healthy NIH 3T3 cells (an established cell-line), when maintained in culture continuously divide and multiply over time. The basis of this test is that a cytotoxic chemical (regardless of site or mechanism of action) will interfere with this process and, thus, result in a reduction of the growth rate as reflected by cell number. The degree of inhibition of growth, related to the concentration of the test compound, provides an indication of toxicity.
The NIH 3T3 cells are maintained in culture and exposed to test compounds over a range of concentrations and the number of viable cells determined after 72 hours exposure by MIT assay. The number of cells in the presence of test chemicals are compared to that observed in control cultures and the percent inhibition of growth calculated. The IC50 concentration (i.e. the concentration producing 50% inhibition of growth) is determined and expressed as μg/ml. A ratio of IC50 of NIH 3T3 cells to tumor cells is an indicator of predicted toxicity of the molecule and is represented as “Safety Index”. The higher the value, the better is the predicted safety of the molecule.

[8] = system: PA1; test: three day MTT cytotoxicity assay, PA1; type: cell-based, human; details: for IC50 for cell lines PA1: PA1, 72 hours
Method: as §2

Molecule | IC50 for cell lines DU145 [1] [mg/L] | IC50 for cell lines SW620 [2] [mg/L] | IC50 for cell lines A549 ([3]; A549, 72 hours, MTT) [mg/L] | IC50 for cell lines K562 ([4]; K562, 72 hours, MTT) [mg/L] | IC50 for cell lines HBL100 ([5]; HBL100, 72 hours, MTT) [mg/L] | IC50 for cell lines Miapaca ([6]; Miapaca, 72 hours, MTT) [mg/L] | IC50 for cell lines NIH3T3 [7] [mg/L] | IC50 for cell lines PA1 [8] [mg/L] | Specific Index (SI) for cell lines A549 [3] | Specific Index (SI) for cell lines K562 [4] | Specific Index (SI) for cell lines HBL100 [5] | Specific Index (SI) for cell lines Miapaca [6] | IC50 ([1]; Homo sapiens, DU-145, DU145, 72 hours, read-out: IC50 for cell lines DU145) [mg/L] | IC50 ([2]; Homo sapiens, SW-620, SW620, 72 hours, read-out: IC50 for cell lines SW620) [mg/L] | IC50 ([3]; Homo sapiens, A549, 72 hours, MTT, read-out: IC50 for cell lines A549) [mg/L] | IC50 ([4]; Homo sapiens, K562, 72 hours, MTT, read-out: IC50 for cell lines K562) [mg/L] | IC50 ([5]; Homo sapiens, HBL-100, HBL100, 72 hours, MTT, read-out: IC50 for cell lines HBL100) [mg/L] | IC50 ([6]; Homo sapiens, MIA PaCa-2, Miapaca, 72 hours, MTT, read-out: IC50 for cell lines Miapaca) [mg/L] | IC50 ([7]; Mus musculus, read-out: IC50 for cell lines NIH3T3) [mg/L] | IC50 ([8]; Homo sapiens, PA-1, PA1, 72 hours, read-out: IC50 for cell lines PA1) [mg/L]
C=C(C)[C@@H]1CC[C@]2(C(=O)OCc3ccccc3)CC[C@]3(C)C(CCC4[C@@]5(C)Cc6c([nH]c7ccccc67)C(C)(C)C5CC[C@]43C)C12 (stereo partly drawn) [Compound 15, 28-O-Benzyl-2,3-didehydro[2′,3′:2,3]indolobetulinate] | >20 | >20 | >20 | >20 | >20 | >20 | >20 | >20 | – | – | – | – | – | – | – | – | – | – | – | –
C=C(C)[C@@H]1CC[C@]2(C(=O)NC3CC3)CC[C@]3(C)C(CCC4[C@@]5(C)Cc6c([nH]c7ccc(Cl)cc67)C(C)(C)C5CC[C@]43C)C12 (stereo partly drawn) [Compound 34, 28-N-Cyclopropyl-5′-chloro-2,3-didehydroindolo[2′,′:2,3]betulinamide] | >20 | >20 | >20 | >20 | >20 | >20 | 1.82 | >20 | – | – | – | – | – | – | – | – | – | – | – | –
CC(C)[C@@H]1CC[C@]2(C(=O)O)CC[C@]3(C)[C@H](CC[C@@H]4[C@@]5(C)Cc6c([nH]c7ccc(Cl)cc67)C(C)(C)[C@@H]5CC[C@]43C)[C@@H]12 [Compound 6, 5′-Chloro-2,3-didehydro-20,29-dihydroindolo[2′,′:2,3]betulinic acid] | 6.5 | 5.9 | 8.8 ± 0.74 | >20 | >20 | 15.19 ± 1.06 | 19.03 ± 0.21 | 6.6 | 2.163 | <0.952 | <0.951 | 1.252 | – | – | – | – | – | – | – | –
C=C(C)[C@@H]1CC[C@]2(C(=O)NCC(=O)OC)CC[C@]3(C)C(CCC4[C@@]5(C)Cc6c([nH]c7ccc(Cl)cc67)C(C)(C)C5CC[C@]43C)C12 (stereo partly drawn) [Compound 23, 28-N-Methylglycinate-5′-chloro-2,3-didehydroindolo[2′,3′:2,3]betulinamide] | – | – | – | – | – | – | – | – | – | – | – | – | > 20 | > 20 | > 20 | > 20 | > 20 | > 20 | > 20 | > 20
CC(C)[C@@H]1CC[C@]2(C(=O)OCc3ccccc3)CC[C@]3(C)C(CCC4[C@@]5(C)Cc6c([nH]c7ccccc67)C(C)(C)C5CC[C@]43C)C12 (stereo partly drawn) [Compound 16, 28-O-Benzyl-2,3-didehydro-20,29-dihydro[2′,3′:2,3]indolobetulinate] | >20 | >20 | >20 | >20 | >20 | >20 | >20 | >20 | – | – | – | – | – | – | – | – | – | – | – | –
C=C(C)[C@@H]1CC[C@]2(C(=O)NCC(=O)O)CC[C@]3(C)[C@H](CC[C@@H]4[C@@]5(C)Cc6c([nH]c7ccccc67)C(C)(C)[C@@H]5CC[C@]43C)[C@@H]12 [Compound 22, 28-N-Glycine-2,3-didehydroindolo[2′,3′:2,3]betulinamide] | 7.0 | 8.7 | 3.53 ± 0.82 | 11.92 ± 1.37 | >20 | 0.67 ± 0.03 | 0.68 ± 0.003 | 3.0 | – | 0.057 | <0.034 | 1.015 | – | – | – | – | – | – | – | –
C=C(C)[C@@H]1CC[C@]2(C(=O)O)CC[C@]3(C)[C@H](CC[C@@H]4[C@@]5(C)Cc6c([nH]c7ccc(OC)cc67)C(C)(C)[C@@H]5CC[C@]43C)[C@@H]12 [Compound 10, 2,3-Didehydro-5′-methoxyindolo[2′,′:2,3]betulinic acid] | 5.75 | 8.4 | 8.2 ± 0.14 | >20 | 12.8 ± 0.39 | 6.4 ± 0.44 | 7.5 ± 0.48 | 5.8 | 0.915 | <0.38 | 0.586 | 1.172 | – | – | – | – | – | – | – | –
28-O-Pivaloyoxymethyl-2,3-didehydroindolo[2′,3′:2,3]betulinate [Compound 17] | >20 | >20 | >20 | >20 | >20 | >20 | >20 | >20 | – | – | – | – | – | – | – | – | – | – | – | –
C=C(C)[C@@H]1CC[C@]2(C(=O)Nc3ccccn3)CC[C@]3(C)C(CCC4[C@@]5(C)Cc6c([nH]c7ccc(Cl)cc67)C(C)(C)C5CC[C@]43C)C12 (stereo partly drawn) [Compound 25, 28-N-(2″-pyridine)-5′-chloro-2,3-didehydroindolo[2′,′:2,3]betulinamide] | >20 | >20 | >20 | >20 | >20 | >20 | >20 | >20 | – | – | – | – | – | – | – | – | – | – | – | –
C=C(C)[C@@H]1CC[C@]2(C(=O)O)CC[C@]3(C)C(CCC4[C@@]5(C)Cc6c([nH]c7cc(Cl)cc(Cl)c67)C(C)(C)C5CC[C@]43C)C12 (stereo partly drawn) [Compound 31, 2,3-Didehydro-4′,6′-dichloroindolo[2′,3′:2,3]betulinic acid] | >20 | >20 | 5.5 | >20 | >20 | >20 | 4.10 | >20 | – | – | – | – | – | – | – | – | – | – | – | –
C=CCOC(=O)[C@]12CC[C@@H](C(=C)C)C1C1CCC3[C@@]4(C)Cc5c([nH]c6ccccc56)C(C)(C)C4CC[C@@]3(C)[C@]1(C)CC2 (stereo partly drawn) [Compound 18, 28-O-Allyl-2,3-didehydroindolo[2′,3′:2,3]betulinate] | >20 | >20 | >20 | >20 | >20 | >20 | >20 | >20 | – | – | – | – | – | – | – | – | – | – | – | –
